These results are taken from PubChem BioAssay (NCI).

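Results reflect a 48-hour exposure of cells in 96-well plates to compound at five concentrations. The concentration for 50% growth inhibition is given as GI50. TGI: concentration producing complete growth inhibition.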

Common to all, as to assay: DTP human tumour cell line panel, 48 h
Assay [1] concerns 786-0 renal.
Assay [2] relates to OVCAR-5 ovarian.
Assay [3] concerns SF-539 CNS.
Assay [4] relates to SR leukemia.
Assay [5] concerns U251 CNS.
The subject of assay [6] is NCI/ADR-RES ovarian.
The test system of assay [7] is OVCAR-3 ovarian.
Assay [8] concerns HS 578T breast.
The test system of assay [9] is NCI-H226 lung.
Assay [10] concerns PC-3 prostate.

With `Nc1c(S(=O)(=O)O)cc(Nc2cccc(S(=O)(=O)/C=C/S(=O)(=O)O)c2)c2c1C(=O)c1ccccc1C2=O`, the TGI in [1], in [2], in [3], in [4], in assay [5] and in assay [6] was greater than 100 µM throughout. For the same molecule, the TGI in assay [7], in assay [8], in assay [9] and in assay [10] was greater than 100 µM each time.
As for `COC1/C=C/C(C)C(C(C)C(OC)C(C)CCC(=O)C(C)C(C/C=C/N(C)C=O)OC)OC(=O)/C=C/C=C(\C)CC(OC)C(OC)C2=CC(=O)O[C@@H](C(C)C(OC)CC(OC)/C=C/C(C)C(O)C1)[C@H]2O` (some centres not stated), the TGI – broadly, the concentration giving total growth inhibition – is 0.434 µM in assay [1]; 0.623 µM in assay [2]; 0.381 µM in assay [3]; greater than 31.6 µM in assay [4]; 0.301 µM in assay [5]; 0.766 µM in [6]. Besides, the TGI in assay [7] is 0.277 µM; in assay [8], 0.16 µM; in assay [9], 0.244 µM; in assay [10] it was 0.35 µM.
In the case of `Nc1ccc(-n2c(=O)oc3ccc(Cl)cc3c2=O)c(Cl)c1`, the GI50 – broadly, the concentration giving 50% growth inhibition – in [2] is 0.467 µM; in assay [3], 0.116 µM; in assay [4] it was 0.0987 µM; in assay [5], 0.118 µM; in assay [6], 0.172 µM; in [7], 0.107 µM. For the same molecule, the results for the GI50 in assay [8], in [9] and in assay [10] were 0.081 µM, 0.154 µM and 0.264 µM, respectively. For the same molecule, the TGI in assay [2] was greater than 100 µM; in assay [3], 1.01 µM; in [5], greater than 34.5 µM; in [6], 1.03 µM; in [7] it was 7.21 µM; in assay [8], 0.562 µM. Moreover, the results for the TGI in assay [9] and in assay [10] were 0.787 µM and 9.59 µM, respectively.
Turning to `CC(=O)NC1=CC(=O)c2cc(C)cc(O)c2C1=O`, the TGI in assay [1] amounted to 27.3 µM; in assay [2], 26.1 µM; in assay [3], 14.8 µM; in assay [4] it was 37.3 µM; in assay [5], 36.4 µM; in assay [6], 23.9 µM. The TGI is 8.37 µM in assay [7], greater than 84.5 µM in [8], 38.5 µM in assay [9] and 40.7 µM in [10].
Consider `CCOc1cc(C2SCC(=O)N2c2nc3cc4sc(N5C(=O)CSC5c5ccc(O)c(OCC)c5)nc4cc3s2)ccc1O` (configuration not stated), for which the TGI in [1], in [2], in assay [3], in [4], in assay [5] and in assay [6] was greater than 100 µM in each case. Moreover, the TGI in assay [7] is greater than 100 µM; in assay [8] it was greater than 100 µM; in assay [9] it was greater than 94.4 µM; in assay [10], greater than 100 µM.
Turning to `COc1cc(C2S/C(=C/c3ccccc3)C(=O)N2c2cccc([N+](=O)[O-])c2)cc(OC)c1OC` (configuration not stated), the TGI in assay [1], in assay [2], in assay [4], in assay [5], in assay [6] and in [8] was greater than 100 µM in each case. The TGI in assay [9] and in assay [10] was greater than 100 µM in each case.
Consider `CC1(C)[C@@H]2C[C@H]1C(Cc1cccc(C[C@H]3c4cc(-c5ccccn5)ncc4[C@H]4C[C@@H]3C4(C)C)c1)c1cc(-c3ccccn3)ncc12` (some centres not stated), for which the TGI was greater than 100 µM in assay [2]; greater than 28.4 µM in assay [3]; 2.63 µM in assay [4]; 16.3 µM in assay [5]; greater than 57.6 µM in assay [6]; 37.2 µM in assay [7]. Besides, the TGI was greater than 100 µM in [8] and greater than 47.2 µM in assay [10]. Also, the GI50 in assay [4] was 0.439 µM.
As for `O=C(Nc1cccc(-n2ccc3c(NC(=O)c4ccccc4)nccc32)c1)c1cc(N2CCOCC2)cc(C(F)(F)F)c1`, the GI50 was 0.696 µM in [2]; 0.0675 µM in assay [3]; 0.0583 µM in assay [4]; 0.118 µM in [5]; 0.09 µM in assay [6]; 0.0259 µM in assay [7]. Moreover, the GI50 is 0.0621 µM in [8], 0.36 µM in assay [9] and 0.152 µM in [10]. Moreover, the concentration for total growth inhibition (TGI) in assay [2] was greater than 100 µM; in assay [3], 0.94 µM; in [5] it was greater than 100 µM; in assay [6], greater than 100 µM; in assay [7], 0.0605 µM; in assay [8] it was 32.6 µM. The molecule also had a TGI in assay [10] greater than 100 µM.
In the case of `O=C1C[C@H](c2ccccc2)C2(C(=O)c3ccccc3C2=O)[C@H](c2ccccc2)C1`, the TGI in assay [2], in assay [4], in assay [5], in assay [6], in [7] and in [8] was greater than 100 µM each time. Besides, the TGI in [9] and in assay [10] was greater than 100 µM each time.
Take `NC(=O)CS(=O)CC(N)C(=O)O` (configuration not stated): the TGI in assay [1], in assay [2], in assay [4], in assay [5], in [6] and in assay [7] was greater than 100 µM throughout. The TGI in assay [8], in assay [9] and in assay [10] was greater than 100 µM each time.
As for `CC(C)C1=CC23CCC4C(C)(C(=O)O)CCCC4(C)C2CC1C(C(=O)O)C3C(=O)O` (configuration not stated), the TGI in assay [1], in [2], in assay [4], in assay [5], in assay [6] and in assay [7] was greater than 100 µM in each case. Moreover, the TGI in [8], in assay [9] and in assay [10] was greater than 100 µM in each case.
With `O=C(C#Cc1cn(C2CC(O)C(CO)O2)c(=O)[nH]c1=O)c1ccccc1` (configuration not stated), the TGI is greater than 100 µM in [1]; 52.5 µM in assay [3]; greater than 100 µM in assay [4]; greater than 100 µM in assay [5]; greater than 100 µM in assay [6]; 37.7 µM in assay [7]. Moreover, the TGI in assay [8], in [9] and in [10] was greater than 100 µM throughout.
On to `COC(=O)CCN(CCC(=O)OC)C1CC1`, for which the TGI in assay [1], in [2], in assay [3], in assay [4], in assay [5] and in [6] was greater than 100 µM each time. The TGI in [8] and in [9] was greater than 100 µM in each case.
Turning to `COc1ccc(C2c3cc4c(cc3OC(N3CCCCC3)C2C)OCO4)cc1` (configuration not stated), the TGI in [1], in assay [2], in assay [3], in assay [4], in assay [6] and in [7] was greater than 100 µM in each case. The TGI in assay [8] was 87.8 µM; in [10], greater than 100 µM.
On to `OCCO[P+]1(OCCO)n2c3ccc2C(c2ccccc2)=C2C=CC(=N2)C(c2ccccc2)=c2ccc(n21)=C(c1ccccc1)C1=NC(=C3c2ccccc2)C=C1`, for which the total growth inhibition concentration (TGI) in assay [1] stood at 1.28 µM; in assay [2], 1.28 µM; in assay [4], 0.294 µM; in assay [5], 1.25 µM; in assay [6], 41.4 µM; in [7], 1.34 µM. For the same molecule, the TGI in assay [8] was found to be 0.206 µM; in assay [10], 1.59 µM.
As for `COc1ccc(C2(C3c4cc(OC)c(OC)cc4CCN3C)SCCCS2)cc1O` (configuration not stated), the TGI in assay [1], in assay [2], in assay [3], in assay [4], in [5] and in assay [6] was greater than 100 µM in each case. Besides, the TGI in [7], in [8] and in assay [10] was greater than 100 µM in each case.
For the molecule `O=C1/C(=C/c2ccco2)NC(=S)N1CN1CCOCC1`, the TGI in assay [1], in [2], in [4], in [5], in assay [6] and in assay [7] was greater than 100 µM each time. For the same molecule, the concentration for total growth inhibition (TGI) in assay [8], in assay [9] and in assay [10] was greater than 100 µM in each case.
In the case of `C#CCOC(=O)C(N)CCCN=C(N)N` (configuration not stated), the TGI in [1], in [2], in [3], in assay [4], in [5] and in [6] was greater than 100 µM throughout. Moreover, the TGI in assay [8], in [9] and in [10] was greater than 100 µM throughout.
As for `Cc1c(F)c(N)c2c(=O)cc(-c3ccc(NC(=O)C(N)CCCN=C(N)N)c(F)c3)oc2c1F` (configuration not stated), the TGI is greater than 100 µM in assay [1]; greater than 50 µM in assay [2]; 40.7 µM in assay [3]; greater than 100 µM in assay [4]; greater than 55.3 µM in assay [5]; greater than 100 µM in assay [6]. The values for the TGI in assay [8], in assay [9] and in assay [10] were 71.9 µM, 0.758 µM and greater than 76.6 µM, respectively.
As to `Cn1ccc(C(=O)NCCCCCNC(=O)c2ccn(C)c(=O)c2O)c(O)c1=O`, the TGI in assay [1], in [4], in [5], in assay [6], in assay [8] and in [9] was greater than 100 µM in each case. For the same molecule, the TGI in assay [10] was greater than 100 µM.
